From patent US11254667B2 (priority 2016, dated 2022) come the findings set out here.

A short description of one series: physchem. To be noted: pH 7.4, aqueous buffer, kinetic from dmso stock.
Another series has as its system MA9-NRas cells. Put plainly: NRAS IC50 (MA9-NRas cells). Type of series: cell-based.
[1] abbreviates: Homo sapiens, read-out: NRAS IC50.
The mark [2] stands for this setting: Homo sapiens; read-out: NRAS IC50.

Values after ≈ are worked out from the molar mass of the structure shown. Read-outs that look alike come from different tables or passages of the source.

As to `c1cc(NC2CNC2)nc(-c2cnc3ccccn23)c1` [Compound I-12, N-(azetidin-3-yl)-6-(imidazo[1,2-a]pyridin-3-yl)pyridin-2-amine], the solubility (in general, how much of the substance goes into solution per volume) in “physchem” was more than 39 µg/mL. This compound displayed a Stability (rat) of more than 30.0 min.

The compound `Clc1ccc2ncc(-c3cccc(NC4CCNC4)n3)n2c1` (stereo not shown) [Compound I-16, 6-(6-chloroimidazo[1,2-a]pyridin-3-yl)-N-(pyrrolidin-3-yl)pyridin-2-amine] showed a solubility in the series “physchem” of more than 46 µg/mL. The compound also displayed a Stability (rat) of 25.6 min. Moreover, the IC50 (in general, the concentration that inhibits the measured activity by half) in the series on MA9-NRas cells (setting [1]) is 1.76 µM.

In “physchem”, `COc1cc2ncc(-c3cccc(NC4CCNC4)n3)n2cc1Cl` (stereo not shown) [Compound I-21, 6-(6-chloro-7-methoxyimidazo[1,2-a]pyridin-3-yl)-N-(pyrrolidin-3-yl)pyridin-2-amine] had a solubility of 7.7 µg/mL (≈ 22.4 µM). For the same compound, the Stability (rat) was 27 min.

The compound `COc1cc2ncc(-c3cccc(NC4CCNC4)n3)n2cc1-c1ccncc1` (stereo not shown) [Compound I-23, 6-(7-methoxy-6-(pyridin-4-yl)imidazo[1,2-a]pyridin-3-yl)-N-(pyrrolidin-3-yl)pyridin-2-amine] displayed a solubility in the series “physchem” of 11.6 µg/mL (≈ 30 µM). Under “rat”, this compound came in with a Stability of more than 30.0 min. Moreover, the concentration for half-maximal inhibition (IC50) in the series on MA9-NRas cells (setting [1]) was 1.83 µM.

Compound `COc1cc2ncc(-c3cccc(NC4CCNC4)n3)n2cc1-c1c(C)n[nH]c1C` (stereo not shown) [Compound I-25, 6-(6-(3,5-dimethyl-1H-pyrazol-4-yl)-7-methoxyimidazo[1,2-a]pyridin-3-yl)-N-(pyrrolidin-3-yl)pyridin-2-amine] returned a solubility in “physchem” of more than 60 µg/mL. This compound also yielded a Stability (rat) of more than 30.0 min. For the same compound, in the series with MA9-NRas cells (setting [2]), the IC50 came out at 15.7 µM.

`COc1cc2ncc(-c3cccc(NC4CCNC4)n3)n2cc1-c1cnn(CCN2CCOCC2)c1` (stereo not shown) [Compound I-26] yielded a solubility in “physchem” of more than 72 µg/mL. The compound further had a Stability (rat) of more than 30.0 min. In addition, in the series on MA9-NRas cells (setting [1]), the half-maximal inhibitory concentration (IC50) turned out to be 15.7 µM.

Compound `COc1cc2ncc(-c3cccc(NC4CCNC4)n3)n2cc1-c1cc[nH]c1` (stereo not shown) [Compound I-27, 6-(7-methoxy-6-(1H-pyrrol-3-yl)imidazo[1,2-a]pyridin-3-yl)-N-(pyrrolidin-3-yl)pyridin-2-amine] registered a solubility in “physchem” of 34.3 µg/mL (≈ 91.6 µM). The same compound returned a Stability (rat) of more than 30.0 min. In addition, in the series with MA9-NRas cells (setting [1]), the IC50 was 4.43 µM.

`COc1cc2ncc(-c3cccc(NC4CCNC4)n3)n2cc1-c1c(C)noc1C` (stereo not shown) [Compound I-28, 6-(6-(3,5-dimethylisoxazol-4-yl)-7-methoxyimidazo[1,2-a]pyridin-3-yl)-N-(pyrrolidin-3-yl)pyridin-2-amine] came in with a solubility in the series “physchem” of more than 60 µg/mL. Also, for the setting “rat”, the Stability came out at 15.7 min. For the same compound, in the series with MA9-NRas cells (setting [2]), the IC50 was found to be 14.8 µM.

Consider `COc1cc2ncc(-c3cccc(NC4CCCNC4)n3)n2cc1-c1cn[nH]c1` (stereo not shown) [Compound I-29, 6-(7-methoxy-6-(1H-pyrazol-4-yl)imidazo[1,2-a]pyridin-3-yl)-N-(piperidin-3-yl)pyridin-2-amine], for which, in the series “physchem”, the solubility came out at 35.6 µg/mL (≈ 91.4 µM). For the same compound, the Stability (rat) is given as 9.8 min. The half-inhibitory concentration (IC50) with MA9-NRas cells (setting [1]) amounted to 9.35 µM.

For the compound `COc1cc2ncc(-c3cccc(NC4CCNCC4)n3)n2cc1-c1cn[nH]c1` [Compound I-30], the solubility in the series “physchem” was found to be 12.3 µg/mL (≈ 31.6 µM). For the setting “rat”, this compound registered a Stability of 24.7 min.

For `COc1cc2ncc(-c3cccc(N(C)C4CCNC4)n3)n2cc1-c1cn[nH]c1` (stereo not shown) [Compound I-31, 6-(7-methoxy-6-(1H-pyrazol-4-yl)imidazo[1,2-a]pyridin-3-yl)-N-methyl-N-(pyrrolidin-3-yl)pyridin-2-amine], in “physchem”, the concentration in solution (solubility) came to 14.1 µg/mL (≈ 36.2 µM). Where the note is “rat”, this compound gave a Stability of 11.5 min. Also, in the series on MA9-NRas cells (setting [2]), the IC50 was found to be 16.6 µM.

On to `COc1cc2ncc(-c3cccc(OC4CCNC4)n3)n2cc1-c1cn[nH]c1` (stereo not shown) [Compound I-32, 7-methoxy-6-(1H-pyrazol-4-yl)-3-(6-(pyrrolidin-3-yloxy)pyridin-2-yl)imidazo[1,2-a]pyri-dine], for which the concentration in solution in “physchem” (solubility) was 8.2 µg/mL (≈ 21.8 µM). Under “rat”, this compound showed a Stability of 7.7 min. In the series on MA9-NRas cells (setting [1]), the 50% inhibitory concentration (IC50) stood at 3.72 µM.

`COc1cc2ncc(-c3nc(NC4CCNC4)c(F)cc3F)n2cc1-c1cn[nH]c1` (stereo not shown) [Compound I-33, 3,5-difluoro-6-(7-methoxy-6-(1H-pyrazol-4-yl)imidazo[1,2-a]pyridin-3-yl)-N-(pyrrolidin-3-yl)pyridin-2-amine]: in “physchem”, the solubility turned out to be 3.9 µg/mL (≈ 9.48 µM). The compound also had a Stability (rat) of 9.3 min. In the series on MA9-NRas cells (setting [1]), the IC50 worked out at 29.8 µM.

For `COc1cc2ncc(-c3cccc(NC4CCNC4)n3)n2cc1OC` (stereo not shown) [Compound I-36], the solubility in “physchem” is more than 50 µg/mL. The Stability (rat) was more than 30.0 min. For the same compound, the half-inhibitory concentration (IC50) in the series on MA9-NRas cells (setting [1]) is 4.43 µM.

On to `COc1cc(-c2cn[nH]c2)cn2c(-c3cccc(NC4CCNC4)n3)cnc12` (stereo not shown) [Compound I-37], for which the solubility in the series “physchem” is more than 55 µg/mL. Besides, for the setting “rat”, the Stability turned out to be 2.3 min. In addition, the IC50 in the series on MA9-NRas cells (setting [1]) turned out to be 16.6 µM.

For the compound `COc1cc2ncc(-c3cccc(NC4CCNC4)n3)n2cc1-c1nnn[nH]1` (stereo not shown) [Compound I-38], the solubility in the series “physchem” was more than 56 µg/mL. Also, the Stability (rat) is reported as more than 30.0 min. The IC50 in the series with MA9-NRas cells (setting [1]) stood at 0.002 µM.

In “physchem”, `COc1cc2ncc(-c3cccc(NC4CCNC4)n3)n2cc1C#N` (stereo not shown) [Compound I-39] had a solubility of 10.6 µg/mL (≈ 31.7 µM). Moreover, the Stability (rat) was determined as 8.8 min. Besides, in the series with MA9-NRas cells (setting [1]), the 50% inhibitory concentration (IC50) was determined as 5.58 µM.

`Clc1cn2c(-c3cccc(NC4CCNC4)n3)cnc2cc1OCCN1CCOCC1` (stereo not shown) [Compound I-40]: the solubility in “physchem” is more than 65 µg/mL. Besides, the Stability (rat) was more than 30.0 min. Further, in the series on MA9-NRas cells (setting [1]), the IC50 was found to be 0.626 µM.

Regarding `c1cc(NC2CCNC2)nc(-c2cnc3cc(OCCN4CCOCC4)c(-c4cn[nH]c4)cn23)c1` (stereo not shown) [Compound I-41, 6-(7-(2-morpholinoethoxy)-6-(1H-pyrazol-4-yl)imidazo[1,2-a]pyridin-3-yl)-N-(pyrrolidin-3-yl)pyridin-2-amine], the solubility in “physchem” was more than 70 µg/mL. In addition, where the note is “rat”, the Stability is given as more than 30.0 min. For the same compound, the IC50 in the series with MA9-NRas cells (setting [1]) stood at 17.6 µM.

`c1cc(N[C@H]2CCNC2)nc(-c2cnc3ccc(-c4cn[nH]c4)cn23)c1` [Compound I-44] came in with a Stability of 6.7 min. In addition, in “physchem”, the solubility came out at 42.6 µg/mL (≈ 123 µM).

In “physchem”, `c1cc(NC2CNC2)nc(-c2cnc3ccc(-c4cn[nH]c4)cn23)c1` [Compound I-45] showed a solubility of more than 49 µg/mL. Moreover, the half-inhibitory concentration (IC50) with MA9-NRas cells (setting [1]) was found to be 4.29 µM.

In the series “physchem”, `Cc1ccc(-c2cnc3ccc(Cl)cn23)nc1NC1CNC1` [Compound I-48] registered a solubility of more than 46 µg/mL. The Stability (rat) is on record as 11.8 min.

`Cc1ccc(NC2CNC2)nc1-c1cnc2ccc(Cl)cn12` [Compound I-49]: the solubility in “physchem” is more than 46 µg/mL. This compound also yielded a Stability (rat) of 26.2 min.

As for `COc1ccn2c(-c3cccc(NC4CNC4)n3)cnc2c1` [Compound I-50, N-(azetidin-3-yl)-6-(7-methoxyimidazo[1,2-a]pyridin-3-yl)pyridin-2-amine], the solubility in the series “physchem” was more than 44 µg/mL. Besides, the Stability (rat) is reported as more than 30.0 min.

`CN(c1cccc(-c2cnc3ccc(Cl)cn23)n1)C1CCNCC1` [Compound I-51] yielded a Stability of 9.0 min. In “physchem”, this compound registered a solubility of more than 50 µg/mL.

On to `Brc1ccc2ncc(-c3cccc(NC4CNC4)n3)n2c1` [Compound I-52], for which, in “physchem”, the concentration in solution (solubility) came to 41.8 µg/mL (≈ 121 µM). The compound also had a Stability (rat) of 19.8 min.

As for `Clc1ccc2ncc(-c3cc(Br)cc(NC4CNC4)n3)n2c1` [Compound I-53], the solubility in “physchem” amounted to 19.5 µg/mL (≈ 51.5 µM). Moreover, the Stability (rat) was more than 30.0 min.

The compound `c1cc(NC2CCNC2)nc(-c2cnc3ccc(-c4cn[nH]c4)cn23)c1` (stereo not shown) [Compound I-54, 6-(6-(1H-pyrazol-4-yl)imidazo[1,2-a]pyridin-3-yl)-N-(pyrrolidin-3-yl)pyridin-2-amine] gave a Stability of 7.6 min. Also, the solubility in the series “physchem” was more than 51 µg/mL.

In the series “physchem”, `Cc1cc(NC2CNC2)nc(-c2cnc3ccc(Cl)cn23)c1` [Compound I-55, N-(azetidin-3-yl)-6-(6-chloroimidazo[1,2-a]pyridin-3-yl)-4-methylpyridin-2-amine] yielded a solubility of more than 46 µg/mL.

On to `CC(=O)N1CC(Nc2cccc(-c3cnc4ccc(Cl)cn34)n2)C1` [Compound I-57], for which, in “physchem”, the solubility was more than 50 µg/mL. Besides, the Stability (rat) is recorded as more than 30.0 min.

As for `O=C(c1ccccc1)N1CC(Nc2cccc(-c3cnc4ccc(Cl)cn34)n2)C1` [Compound I-58], the solubility in “physchem” was less than 1 µg/mL. Under “rat”, the Stability is on record as 8.0 min.

Take `N#CCC(=O)N1CC(Nc2cccc(-c3cnc4ccc(Cl)cn34)n2)C1` [Compound I-59]: the concentration in solution in “physchem” (solubility) was 18.3 µg/mL (≈ 49.9 µM). The compound also yielded a Stability (rat) of more than 30.0 min.

Turning to `N#Cc1ccc2ncc(-c3cccc(NC4CNC4)n3)n2c1` [Compound I-60, 3-(6-(azetidin-3-ylamino)pyridin-2-yl)imidazo[1,2-a]pyridine-6-carbonitrile], the solubility in the series “physchem” was more than 43 µg/mL. The same compound registered a Stability (rat) of 16.4 min.

`Cc1ccn2c(-c3cccc(NC4CNC4)n3)cnc2c1` [Compound I-61, N-(azetidin-3-yl)-6-(7-methylimidazo[1,2-a]pyridin-3-yl)pyridin-2-amine] came in with a solubility in the series “physchem” of more than 41 µg/mL. Under “rat”, this compound came in with a Stability of more than 30.0 min.

In the case of `Clc1cc2ncc(-c3cccc(NC4CNC4)n3)n2cc1Cl` [Compound I-62], the solubility in “physchem” was determined as 41.5 µg/mL (≈ 124 µM). For the same compound, under “rat”, the Stability was more than 30.0 min.

`Clc1ccn2c(-c3cccc(NC4CNC4)n3)cnc2c1` [Compound I-63, N-(azetidin-3-yl)-6-(7-chloroimidazo[1,2-a]pyridin-3-yl)pyridin-2-amine] showed a solubility in “physchem” of more than 44 µg/mL.

`CCN1CCN(c2ccc3ncc(-c4cccc(NC5CNC5)n4)n3c2)CC1` [Compound I-64] displayed a solubility in “physchem” of more than 56 µg/mL.

With `COc1cc(NC2CNC2)nc(-c2cnc3ccc(Cl)cn23)c1` [Compound I-67, N-(azetidin-3-yl)-6-(6-chloroimidazo[1,2-a]pyridin-3-yl)-4-methoxypyridin-2-amine], the solubility in “physchem” was more than 49 µg/mL. Under “rat”, this compound had a Stability of more than 30.0 min.

Turning to `C#Cc1cn2c(-c3cccc(NC4CCNC4)n3)cnc2cc1OC` (stereo not shown) [Compound I-68, 6-(6-ethynyl-7-methoxyimidazo[1,2-a]pyridin-3-yl)-N-(pyrrolidin-3-yl)pyridin-2-amine], the solubility in “physchem” was more than 49 µg/mL. The compound also displayed a Stability (rat) of 11.6 min.
